Values quoted from earlier work as cited in patent US11896953B2, “HLB copolymers” (Sigma-Aldrich Co. LLC, priority 2017, dated 2024).

conditions: 20-analyte mix for extended screening (Table 22)

Row | Compound | Log P
1 | N=C(N)NC(=O)c1nc(Cl)c(N)nc1N [Amiloride] | −0.30
2 | CN(C)CCC=C1c2ccccc2CCc2ccccc21 [Amitriptyline] | 5.10
3 | CN1[C@H]2CC[C@@H]1[C@@H](C(=O)O)[C@@H](OC(=O)c1ccccc1)C2 [Benzoylecgonine] | 1.71
4 | CC[C@H]1OC(=O)[C@H](C)[C@@H](O[C@H]2C[C@@](C)(OC)[C@@H](O)[C@H](C)O2)[C@H](C)[C@@H](O[C@@H]2O[C@H](C)C[C@H](N(C)C)[C@H]2O)[C@](C)(OC)C[C@@H](C)C(=O)[C@H](C)[C@@H](O)[C@]1(C)O [Clarithromycin] | 3.16
5 | O=[N+]([O-])NC1=NCCN1Cc1ccc(Cl)nc1 [Imidacloprid] | 0.57
6 | CCCCc1nc(Cl)c(CO)n1Cc1ccc(-c2ccccc2-c2nn[nH]n2)cc1 [Losartan] | 6.10
7 | CN1CCCCC1CCN1c2ccccc2Sc2ccc([S+](C)[O-])cc21 (centres unmarked) [Mesoridazine] | 3.90
8 | CN(C)CCN(Cc1cccs1)c1ccccn1 [Methapyrilene] | 2.87
9 | CN1CCN2c3ccccc3Cc3ccccc3C2C1 (centres unmarked) [Mianserin] | 3.52
10 | CN1CCN2c3ncccc3Cc3ccccc3C2C1 (centres unmarked) [Mirtazapine] | 2.90
11 | CCc1nn(CCCN2CCN(c3cccc(Cl)c3)CC2)c(=O)n1CCOc1ccccc1 [Nefazodone] | 4.70
12 | Cc1ccnc2c1NC(=O)c1cccnc1N2C1CC1 [Nevirapine] | 2.50
13 | CNC(=C[N+](=O)[O-])NCCSCc1csc(CN(C)C)n1 [Nizatidine] | 1.10

same assay, conditions: analytes of the six analyte preliminary screen (Table 18)

Row | Compound | Log P
14 | Oc1ccc2ccc(O)cc2c1 [2,7-dihydroxynaphthalene] | 2.3
15 | Cc1ccc(C(N)=O)cc1 [p-Toluamide] | 1.2

same assay, conditions: eight analytes of the 3-step protocol evaluations (Table 25)

Row | Compound | Log P
16 | CNCCCC1c2ccccc2C=Cc2ccccc21 [Protriptyline] | 4.70

same assay, conditions: hydrophilic monomers

Row | Compound | log P
17 | C=CC#N [acrylonitrile] | 0.25
